Test results taken from US20110039762A1, “TARGETED ANTIMICROBIAL MOIETIES” (C3 JIAN, INC., priority 2009, published 2011).
“Also recorded” adds a separate entry of the source.

Legend:
[1] = test system: microorganisms (e.g., bacteria, yeasts, fungi); experiment: Targeting peptide binding to target microorganisms (Table 3); conditions: preferably 1x PBS; for Target(s) (microorganisms bound by the targeting peptide): peptide binding in aqueous buffers varied by peptide solubility
microorganisms = experiment: Peptides having multiple activities (targeting/binding, antimicrobial, growth or phenotype altering)
Excerpt: In certain embodiments, peptides described herein can have multiple activities. Thus for example, a peptide can have both binding/targeting activity and antimicrobial activity. Such peptides can be used, e.g., in a chimeric construct, for any or all of these properties. Thus, for example, a peptide designated “B” in Table 8 can be used as a targeting peptide. If it is also designated G or M it can also be used for antimicrobial activity.

MRSA = experiment: Kill or inhibit growth/proliferation; morphology, biofilm and growth disruption (Tables 5, 6); assay type: cell-based, Methicillin-resistant Staphylococcus aureus; parameters: key: A: Peptide aggregates; B: Less hyphal formation; Clumps; Diffuse clumps and small polyps; F: Diffuse growth; H: Thin; I: Growth inhibition; Microcolony formation; Rippled; Small polyps; Thick; W: Halo formation on top, microlonies on bottom; also: test concentration or dose not given here
S. pneumoniae = experiment: as above; assay type: cell-based, Streptococcus pneumoniae; parameters: key: A: Peptide aggregates; B: Less hyphal formation; Clumps; Diffuse clumps and small polyps; F: Diffuse growth; H: Thin; I: Growth inhibition; Microcolony formation; Rippled; Small polyps; Thick; W: Halo formation on top, microlonies on bottom
S. epidermidis = experiment: as above; assay type: cell-based, Staphylococcus epidermidis; parameters: key: A: Peptide aggregates; B: Less hyphal formation; Clumps; Diffuse clumps and small polyps; F: Diffuse growth; H: Thin; I: Growth inhibition; Microcolony formation; Rippled; Small polyps; Thick; W: Halo formation on top, microlonies on bottom
C. jeikeium = experiment: as above; assay type: cell-based, Corynebacterium jeikeium; parameters: key: A: Peptide aggregates; B: Less hyphal formation; Clumps; Diffuse clumps and small polyps; F: Diffuse growth; H: Thin; I: Growth inhibition; Microcolony formation; Rippled; Small polyps; Thick; W: Halo formation on top, microlonies on bottom; also: test concentration or dose not given here
E. faecalis = experiment: as above; assay type: cell-based, Enterococcus faecalis; parameters: key: A: Peptide aggregates; B: Less hyphal formation; Clumps; Diffuse clumps and small polyps; F: Diffuse growth; H: Thin; I: Growth inhibition; Microcolony formation; Rippled; Small polyps; Thick; W: Halo formation on top, microlonies on bottom; also: test concentration or dose not given here
E. coli = experiment: as above; assay type: cell-based, Escherichia coli; parameters: key: A: Peptide aggregates; B: Less hyphal formation; Clumps; Diffuse clumps and small polyps; F: Diffuse growth; H: Thin; I: Growth inhibition; Microcolony formation; Rippled; Small polyps; Thick; W: Halo formation on top, microlonies on bottom; also: test concentration or dose not given here
M. luteus = experiment: as above; assay type: cell-based, Micrococcus luteus; parameters: key: A: Peptide aggregates; B: Less hyphal formation; Clumps; Diffuse clumps and small polyps; F: Diffuse growth; H: Thin; I: Growth inhibition; Microcolony formation; Rippled; Small polyps; Thick; W: Halo formation on top, microlonies on bottom; also: test concentration or dose not given here
For Organism, effect (morphology, biofilm and growth disruption) in this document: test concentration or dose not given here.
For Organism, effect in this document: test concentration or dose not given here.

Substance | Target(s) (microorganisms bound by the targeting peptide) [1] | Activities (microorganisms) | Organism, effect (MRSA) | Organism, effect (S. pneumoniae) | Organism, effect (S. epidermidis) | Organism, effect (C. jeikeium) | Organism, effect (E. faecalis) | Target(s) ([1]; microorganism(s) the targeting peptide binds, peptide binding conducted in aqueous buffers varied by peptide solubility) | Organism, effect (E. coli) | Organism, effect (M. luteus) | Organism, effect (morphology, biofilm and growth disruption) (MRSA) | Organism, effect (morphology, biofilm and growth disruption) (S. pneumoniae) | Organism, effect (morphology, biofilm and growth disruption) (S. epidermidis) | Organism, effect (morphology, biofilm and growth disruption) (C. jeikeium) | Organism, effect (morphology, biofilm and growth disruption) (E. faecalis) | Target(s) ([1]; microorganism(s) the targeting peptide binds, binding in aqueous buffers depending on peptide solubility) | Target(s) ([1]; microorganism the targeting peptide binds, binding in aqueous buffers varied by peptide solubility)
PF-637: peptide having multiple activities (chain 1 SRIKQDARSVRKYDRIGIFFYSFKSA; chain 2 SRIKQDARSVRKYDRIGIFFYSFKSA; Peptide with targeting and/or antimicrobial activity) | S. epidermidis and P. aeruginosa and C. albicans and MRSA and S. pneumoniae and E. faecalis and C. jeikeium | G B | MRSA (M) | S. pneumoniae (M) | S. epidermidis (M) | C. jeikeium (D) | E. faecalis (D) |  |  |  |  |  |  |  |  |  | 
PF-623: peptide having multiple activities (VLFAVYLGALDWLFSWLTQKM; Peptide with targeting and/or antimicrobial activity) | S. epidermidis and P. aeruginosa and MRSA and S. pneumoniae and E. faecalis and C. jeikeium | G B | MRSA (D) | S. pneumoniae (D) | S. epidermidis (M) | C. jeikeium (R) | E. faecalis (D) |  |  |  |  |  |  |  |  |  | 
PF-546: peptide having multiple activities (chain 1 PIIAPTIKTQIQ; chain 2 PIIAPTIKTQIQ; Peptide with targeting and/or antimicrobial activity) |  | G B | MRSA (D) | S. pneumoniae (D) | S. epidermidis (D) | C. jeikeium (D) | E. faecalis (D) | S. epidermidis; also recorded: E. coli; also recorded: C. albicans; also recorded: S. pneumoniae; also recorded: E. faecalis; also recorded: C. jeikeium | E. coli (R) |  |  |  |  |  |  |  | 
PF-139: peptide having multiple activities (ALSKPAIQARTLCRRQDPP; Peptide with targeting and/or antimicrobial activity) |  | G B |  |  | S. epidermidis (M) | C. jeikeium (R) |  |  |  | M. luteus (C) |  |  |  |  |  |  | 
PF-199 (FPAFSFGAIAGSVSVAR; Peptide with targeting and/or antimicrobial activity) |  |  |  |  | S. epidermidis (C) | C. jeikeium (R) |  |  |  | M. luteus (A) |  |  |  |  |  |  | 
PF-681: peptide having multiple activities (chain 1 TALTTVGVSGARLITYCVGVEDI; chain 2 TALTTVGVSGARLITYCVGVEDI; Peptide with targeting and/or antimicrobial activity) | M. smegmatis | G B |  |  |  |  |  |  |  |  | MRSA (M) | S. pneumoniae (M) | S. epidermidis (M) | C. jeikeium (R) | E. faecalis (R) |  | 
PF-657 (chain 1 YVANYTITQFGRDFDDRLAVAIHFA; chain 2 YVANYTITQFGRDFDDRLAVAIHFA; Peptide with targeting and/or antimicrobial activity) | Mycobacteria spp |  |  |  |  |  |  |  |  |  | MRSA (D) | S. pneumoniae (H) | S. epidermidis (C) | C. jeikeium (D) | E. faecalis (D) |  | 
PF-191: peptide having multiple activities (QFCNFAWLFLASNNAQVSALA; Peptide with targeting and/or antimicrobial activity) |  | G B | MRSA (H) |  | S. epidermidis (A) | C. jeikeium (R) |  |  |  |  |  |  |  |  |  | E. coli; also recorded: P. aeruginosa; also recorded: C. jejuni | 
PF-629: peptide having multiple activities (chain 1 GLAAIATVFALY; chain 2 GLAAIATVFALY; Peptide with targeting and/or antimicrobial activity) | S. epidermidis and P. aeruginosa and C. albicans and MRSA and S. pneumoniae and E. faecalis and C. jeikeium | G B | MRSA (D) | S. pneumoniae (M) | S. epidermidis (C) | C. jeikeium (R) | E. faecalis (R) |  |  |  |  |  |  |  |  |  | 
PF-048: peptide having multiple activities (chain 1 LYFAFKKYQERVNQAPNIEY; chain 2 LYFAFKKYQERVNQAPNIEY; Peptide with targeting and/or antimicrobial activity) |  | G B | MRSA (W) |  | S. epidermidis (D) | C. jeikeium (S) |  |  |  |  |  |  |  |  |  |  | S. epidermidis and M. luteus and E. coli and MRSA and C. jeikeium and C. jejuni
PF-622: peptide having multiple activities (TREDVFSVRLINNIVNKQA; Peptide with targeting and/or antimicrobial activity) | S. epidermidis; also recorded: P. aeruginosa; also recorded: C. albicans; also recorded: S. pneumoniae; also recorded: E. faecalis; also recorded: C. jeikeium | G B | MRSA (D) | S. pneumoniae (M) | S. epidermidis (D) | C. jeikeium (D) | E. faecalis (D) |  |  |  |  |  |  |  |  |  | 
PF-685 (chain 1 PTLWLACL; chain 2 PTLWLACL; Peptide with targeting and/or antimicrobial activity) | Mycobacteria spp |  |  |  |  |  |  |  |  |  | MRSA (M) | S. pneumoniae (M) | S. epidermidis (M) | C. jeikeium (R) | E. faecalis (R) |  | 
